“And” between values parts separate entries of the source, which are not always exact repeats. Identical values can stand only once.
How the values were obtained:
[1] = molecular target: hSTING-R232 (aa140-379) (Homo sapiens, UniProt Q86WV6, H232R); assay: STING differential scanning fluorimetry (DSF) assay, hSTING WT; conditions: shift in melting temperature apo vs ligand-bound
Protocol: A STING DSF assay was performed to determine protein thermostability shift in response to small molecule ligand binding. A STING thermnostability shift assay based on differential scanning fluorimetry was used to measure (1) the net shift in melting temperature (ΔTm) between the apo and ligand-bound states of the STING protein and (2) the concentration of the thermal denaturation transition (EC50) as a surrogate measure of binding affinity (Kd). […] Protein in assay buffer was transferred to a 384 well plate and incubated with the hydrophobic fluorescent dye SYBR Orange. A temperature ramp was applied to the plate and the resulting dye fluorescence was plotted as a function of temperature. The first derivative of this function (dF/dT) was then used to extrapolate the melting temperature of the protein at various concentrations of compound and determine the thermal denaturation profile of a protein/compound complex.
5 μM purified Target STING Protein • 3. 8 μM Sypro Orange Dye • 4. Buffer: 100 mM NaCl, 30 mM HEPES, pH 7.5 • 5. Thermal Ramp: 0.5° C./min • 6. <1% DMSO • 7. 11 point, 2 fold dilution, duplicate, 300 μM high concentrations • 8.

[2] = system: STING protein; IRF/IFN signaling in THP-1 R232 cells; assay: Cell based reporter assay, THP-1 R232 IRF-luc; conditions: Homo sapiens, THP1-dual-KI R232 cells, IRF luciferase reporter; for Emax: maximum measured activity, read-out: THP 1-dual-KI R232_IRF(Luciferase)_Activity Maximum measured (%); for IC50: read-out: THP 1-dual-KI R232_IRF(Luciferase) IC50
Source text: Cell reporter assays were developed to measure the ability of compounds of the application to activate the STING protein and activate both IRF/IFN and the NFkB signaling pathways in the myeloid derived cell line THP-1, which is commercially available from several suppliers. Briefly, THP-1 monocytes were transfected and selected for stable integration of 2 reporter constructs. Clones incorporating stably integrated vectors were further selected by antibiotic resistance to blastocidin and zeocin. The reporter constructs included: (1) firefly luciferase reporter gene under the control of an ISG54 promoter fused to five interferon (IFN)-stimulated response elements to measure IRF transcription factor binding activity and (2) secreted embryonic alkaline phosphatase reporter gene under transcription control of an IFN-beta minimal promoter fused to 5 copies of the NFkB consensus transcriptional response element and 3 copies of the c-Rel binding site.
The resulting THP-1 cell line was further modified to incorporate 3 amino acid point mutations (H71R A230G Q293R). This modification of the native TMEM173 gene in THP-1 cells (HAQ) was designed to produce a cell reporter that expressed the most common allelic variant in the human population (THP-1 R232, available from InvivoGen). Alternatively, the TMEM173 gene was knocked out to provide a congenic control to counter-screen for compound activation that was independent of the STING protein (THP-1 STING KO).
Once cell lines were established, reporter assay protocols were developed and optimized to screen small molecule compounds for agonist activity. Assay optimization for efficacy and Z′ value included titration of the following parameters:
• 1. Cell pre-activation with PMA • 2. Cell seeding density • 3. DMSO tolerance • 4. Media selection • 5. FBS concentration • 6. Incubation time • 7. Co-Assessment of cell viability by CTG assay • 8. Appropriate HPE and ZPE controls • 9. Dose Response Titration
• 1. No pre-activation with PMA • 2. 5×10^4 cells/well in 96 well plate format • 3. <0.5% DMSO • 4. RPMI 1640+2.5 mg/ml glucose • 5. 10% FBS • 6. 14-18 hr incubation • 7. Cell Titer Glo reagent (Promega) following supernatant removal • 8. […] 8 point, 2 fold, duplicate starting at 150 μM

[3] = molecular target: human STING protein (140-379), WT (Homo sapiens, UniProt Q86WV6, H232R); assay: Radiometric filtration binding competition assay (FBA), hSTING-WT; conditions: WT-hSWAT IC50 (μM), WT_FBA_HIS-SUMO-hSWAT; wild-type human STING; competition with [H3] 2′3′cGAMP
Chain of human STING protein (140-379), WT (Q86WV6 140-379 H232R): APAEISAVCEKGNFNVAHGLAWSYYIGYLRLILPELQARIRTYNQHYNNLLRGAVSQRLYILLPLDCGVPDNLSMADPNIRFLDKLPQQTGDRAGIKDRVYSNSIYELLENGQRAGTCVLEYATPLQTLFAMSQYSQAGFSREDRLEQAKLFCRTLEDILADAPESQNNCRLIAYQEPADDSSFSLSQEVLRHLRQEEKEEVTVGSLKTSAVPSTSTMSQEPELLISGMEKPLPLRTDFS

Chain of hSTING-R232 (aa140-379) (Q86WV6 140-379 H232R): as above

Row | Structure (SMILES) | WT_DSF_hSWAT Tm Shift (° C.) [1] | IC50 [2] [µM] | IC50 [3] | Emax [2] [%]
1 | CC/C=C(\CC)c1ccc2c(=O)c3ccc(Cl)c(OC)c3n(CC(=O)O)c2c1 [Compound 18] | D (“D” >7° C.) | < 50 | 20 to 100 µM | > 50
2 | CC(C)c1ccc2c(=O)c3c(O)cc(Cl)c(N(C)C)c3n(CC(=O)O)c2c1 [Compound 21] | D (“D” >7° C.) | < 50 | < 20 µM | > 50
3 | CN(C)c1c(Cl)ccc2c(=O)c3ccc(C4=CCCCC4)cc3n(CC(=O)O)c12 [Compound 23] | D (“D” >7° C.) | < 50 | < 20 µM | > 50
4 | CN(C)c1c(Cl)ccc2c(=O)c3ccc(C4=CCN(C(=O)OC(C)(C)C)C4)cc3n(CC(=O)O)c12 [Compound 25] | D (“D” >7° C.) | < 50 | < 20 µM | > 50
5 | CN(C)c1c(Cl)ccc2c(=O)c3cc(Br)ccc3n(CC(=O)O)c12 [Compound 29] | B (“B” = 0-2° C.) | < 50 | > 300 µM | > 50
6 | CN(C)c1c(Cl)ccc2c(=O)c3cc(-c4ccccc4)ccc3n(CC(=O)O)c12 [Compound 30] | D (“D” >7° C.) | < 50 | < 20 µM | 25 to 50
7 | Cc1cc2c(cc1Br)c(=O)c1ccc(Cl)c(N(C)C)c1n2CC(=O)O [Compound 34] | C (“C” = 2-7° C.) | < 50 | 20 to 100 µM | 5 to 25
8 | CN(C)c1c(Cl)ccc2c(=O)c3ccc(C4CCC4)cc3n(CC(=O)O)c12 [Compound 35] | D (“D” >7° C.) | < 50 | < 20 µM | > 50
9 | Cc1ccc2c(=O)c3ccc(C(C)(C)C)cc3n(CC(=O)O)c2c1N(C)C [Compound 39] | D (“D” >7° C.) | < 50 | < 20 µM | > 50
10 | C=C(C)c1c(Cl)ccc2c(=O)c3ccc(C)cc3n(CC(=O)O)c12 [Compound 47] | D (“D” >7° C.) | < 50 | < 20 µM | > 50
11 | Cc1ccc2c(=O)c3c(O)cc(Cl)c(N(C)C)c3n(CC(=O)O)c2c1 [Compound 51] | D (“D” >7° C.) | 100 to 150 | 20 to 100 µM | > 50
12 | COc1c(Cl)ccc2c(=O)c3ccc(C4CCN(C)CC4)cc3n(CC(=O)O)c12 [Compound 53] | C (“C” = 2-7° C.) | > 150 | 100 to 300 µM | 5 to 25
13 | COc1c(Cl)ccc2c(=O)c3ccc(C4=CCN(C)CC4)cc3n(CC(=O)O)c12 [Compound 54] | C (“C” = 2-7° C.) | > 150 | > 300 µM | 5 to 25
14 | COCCOc1cccc2c(=O)c3ccc(Cl)c(OC)c3n(CC(=O)O)c12 [Compound 60] | B (“B” = 0-2° C.) | > 150 | > 300 µM | 5 to 25
15 | COc1c(Cl)ccc2c(=O)c3cccc(OCCO)c3n(CC(=O)O)c12 [Compound 61] | B (“B” = 0-2° C.) | > 150 | > 300 µM | 5 to 25

Now from value to compound, other results behind:

Row | WT_DSF_hSWAT Tm Shift (° C.) [1] | IC50 [2] [µM] | IC50 [3] | Structure (SMILES) | Emax [2] [%]
16 | D (“D” >7° C.) | < 50 | < 20 µM | CC/C=C(\CC)c1ccc2c(=O)c3ccc(Cl)c(N(C)C)c3n(CC(=O)O)c2c1 [Compound 19] | > 50
17 | D (“D” >7° C.) | < 50 | < 20 µM | CN(C)c1c(Cl)ccc2c(=O)c3ccc(Br)cc3n(CC(=O)O)c12 [Compound 20] | > 50
18 | D (“D” >7° C.) | 50 to 100 | < 20 µM | CCC(C)(C)c1ccc2c(=O)c3ccc(Cl)c(N(C)C)c3n(CC(=O)O)c2c1 [Compound 22] | > 50
19 | D (“D” >7° C.) | < 50 | < 20 µM | C=C(C)c1ccc2c(=O)c3ccc(Cl)c(N(C)C)c3n(CC(=O)O)c2c1 [Compound 24] | > 50
20 | C (“C” = 2-7° C.) | 50 to 100 | 100 to 300 µM and 20 to 100 µM | Cc1ccc2c(c1)c(=O)c1ccc(Cl)c(N(C)C)c1n2CC(=O)O [Compound 31] | > 50
21 | D (“D” >7° C.) | < 50 | < 20 µM | CN(C)c1c(Cl)ccc2c(=O)c3ccc(C4CC4)cc3n(CC(=O)O)c12 [Compound 36] | > 50
22 | D (“D” >7° C.) | < 50 | < 20 µM | CCc1ccc2c(=O)c3ccc(Cl)c(N(C)C)c3n(CC(=O)O)c2c1 [Compound 37] | > 50
23 | D (“D” >7° C.) | > 150 | > 300 µM | Cc1ccc2c(=O)c3ccc(Cl)c(C(C)C)c3n(CC(=O)O)c2c1 [Compound 46] | 5 to 25
24 | D (“D” >7° C.) | < 50 | < 20 µM | CN(C)c1c(Cl)ccc2c(=O)c3ccc(C(C)(C)C#N)cc3n(CC(=O)O)c12 [Compound 52] | > 50
25 | D (“D” >7° C.) | < 50 | 20 to 100 µM | Cc1ccc2c(=O)c3ccc(Cl)c(N(C)C)c3n(CC(=O)NS(C)(=O)=O)c2c1 [Compound 55] | > 50
26 | D (“D” >7° C.) | > 150 | < 20 µM | CN(C)c1c(Cl)ccc2c(=O)c3ccc(-c4ccco4)cc3n(CC(=O)NS(C)(=O)=O)c12 [Compound 56] | –
27 | D (“D” >7° C.) | < 50 | < 20 µM | CC(C)c1ccc2c(=O)c3ccc(Cl)c(N(C)C)c3n(CC(=O)O)c2c1 [Compound 58] | > 50
